Measured values from ChEMBL document CHEMBL3425492, “Dual high-resolution α-glucosidase and radical scavenging profiling combined with HPLC-HRMS-SPE-NMR for identification of minor and major constituents directly from the crude extract of Pueraria lobata” (J Nat Prod, 2015).
Activity calls are given as the source filed them. The rule behind the calls is not given here.

Assays:
[1] = Antioxidant activity of the compound assessed as inhibition of ABTS radicals after 20 mins by spectrophotometric analysis; format: physicochemical
[2] = test system: Saccharomyces cerevisiae; assay: Inhibition of Saccharomyces cerevisiae alpha-glucosidase type 1 assessed as 4-nitrophenol cleavage product by high-resolution biochromatogram

Compound	inhibition (INH) [1]	Activity [2]
O=c1c(-c2ccc(O[C@@H]3O[C@H](CO)[C@@H](O)[C@H](O)[C@H]3O)cc2)coc2cc(O)ccc12	Not Active	
COc1ccc(-c2coc3cc(O[C@@H]4O[C@H](CO)[C@@H](O)[C@H](O)[C@H]4O)cc(O)c3c2=O)cc1	Not Active	
O=c1c(-c2ccc(O)cc2)coc2cc(O[C@@H]3O[C@H](CO)[C@@H](O)[C@H](O)[C@H]3O)cc(O)c12 [GENISTIN]	Not Active	Active
COc1ccc(-c2coc3cc(O[C@@H]4O[C@H](COC(=O)CC(=O)O)[C@@H](O)[C@H](O)[C@H]4O)ccc3c2=O)cc1	Not Active	
COc1cc(-c2coc3cc(O[C@@H]4O[C@H](COC(=O)CC(=O)O)[C@@H](O)[C@H](O)[C@H]4O)ccc3c2=O)ccc1O	Not Active	
O=c1c(-c2ccc(O)cc2)coc2cc(O[C@@H]3O[C@H](CO)[C@@H](O)[C@H](O)[C@H]3O)ccc12 [DAIDZIN]	Not Active	Active
COc1ccc(-c2coc3cc(O)ccc3c2=O)cc1 [FORMONONETIN]	Not Active	
COc1cc(-c2coc3cc(O[C@@H]4O[C@H](CO)[C@@H](O)[C@H](O)[C@H]4O)ccc3c2=O)ccc1O	Not Active	
COc1ccc(-c2coc3cc(O[C@@H]4O[C@H](CO)[C@@H](O)[C@H](O)[C@H]4O)ccc3c2=O)cc1 [ONONIN]	Not Active	
O=c1c(-c2ccc(O)cc2)coc2c([C@@H]3O[C@H](CO)[C@@H](O)[C@H](O)[C@H]3O)c(O)ccc12 [PUERARIN]	Not Active	Active
O=c1c(-c2ccc(O)cc2)coc2cc(O)cc(O)c12 [GENISTEIN]	Not Active	
O=C(O)CC(=O)OC[C@H]1O[C@@H](Oc2cc(O)c3c(=O)c(-c4ccc(O)cc4)coc3c2)[C@H](O)[C@@H](O)[C@@H]1O	Not Active	Active
O=C(O)CC(=O)OC[C@H]1O[C@@H](Oc2ccc3c(=O)c(-c4ccc(O)cc4)coc3c2)[C@H](O)[C@@H](O)[C@@H]1O	Not Active	Active
O=Cc1c(-c2ccc(O)cc2O)oc2cc(O)ccc12	Active	
COc1ccc(-c2coc3cc(O[C@@H]4O[C@H](COC(=O)CC(=O)O)[C@@H](O)[C@H](O)[C@H]4O)cc(O)c3c2=O)cc1	Not Active	
COc1ccc(C2=CC(=O)O[C@H]2Cc2ccc(O)cc2)c(O[C@@H]2O[C@H](CO)[C@@H](O)[C@H](O)[C@H]2O)c1	Not Active	Active
O=c1c(-c2ccc(O)cc2)coc2cc(O)ccc12 [DAIDZEIN]	Active	Active
